Data taken from patent US20100035831A1, “ANTI-WRINKLE AGENT AND ADAM INHIBITOR” (SHISEIDO COMPANY, LTD., priority 2007, published 2010).

What was measured:
ADAM = assay: Inhibition of PMA-induced TNF-α release from U937 cells as index of ADAM inhibition (ELISA); type: cell-based, human; conditions: tested substance 30 μg/mL, 30 min pretreatment, 10 nM PMA for 6 hours
Method: For ADAM inhibiting effect, the TNF-α which is cut out to be released from the membrane of the U937 cell derived from the human lymphoma through the action of the ADAM was used as an index and the inhibiting effect on the TNF-α release was assessed. A new ADAM inhibitor was explored by screening different compounds according to the present method.
The U937 cells derived from the human lymphoma were seeded to the 48-well plate adjusting the number of the cells to 1×10^5 cells/0.25 ml and cultured at 37° C. overnight. The medium which contained 30 μg/ml of alkyl glucoside was added and incubated at 37° C. for 30 min. to be pretreated. 10 nM PMA (phorbol ester:12-O-tetradecanoylphorbol-acetate; Sigma P8139) was then added and cultured at 37° C. for 6 hours. After completion of the treatment, the supernatant of the culture was collected, centrifuged and the cell-free supernatant was cryopreserved at −20° C. The assay of the released hTNF-α was performed using the hTNF-α Duo-Set ELISA kit from R & D Ltd. Each supernatant of the culture was diluted 5 folds with the medium, then 100 μl each was added to the 96-well plate and measured according to the protocol of R & D Ltd. The absorbance at 450-570 nm of each well was measured by the measurement kit and concentrations of the samples were obtained from the standard curve. The inhibition rates were calculated according to the following equation wherein A0 is the absorbance of 0% inhibiting control (the medium containing only PMA), A100 is the absorbance of 100% inhibiting control (only the medium) and AS is the absorbance of the sample.
The inhibition rate (%)=(A0−AS)/(A0−A100)×100

[1] = tested on: barrier-destructed wrinkle mouse model; assay: Wrinkle score by visual judgement in the tape-stripping barrier-destructed wrinkle mouse model; type: in vivo, hairless mice (HR-1)
Method: Then, the wrinkle-ameliorating effects of dodecyl β-D-glucoside (GC12), tetradecyl β-D-glucoside (GC14), and hexadecyl β-D-glucoside (GC16) amongst the new ADAM-inhibiting compounds were examined using a barrier-destructed wrinkle mouse model.
(§1) The tape stripping was performed on the left back of the hairless mice (HR-1, 6 week old male, Hosino experimental animals) 3 times a week for 4 consecutive weeks so that the trans epithelial water loss (measured using a measuring device of water loss MEECO; Meeco Ltd, USA) was 4-8 mg/cm^2/h. Every time immediately after procedures of tape stripping, 100 μl each of the solutions of dodecyl β-D-glucoside, tetradecyl β-D-glucoside, and hexadecyl β-D-glucoside dissolved in the 50% ethanol aqueous solution so that they were 1% were applied on the left back of the mice, and as the negative control, a 50% ethanol aqueous solution (vehicle) were similarly applied. Number n was set as 6 to 7 for each group.
States of the wrinkle development after 4 weeks were scored by visual judgement. The assessment criteria of the wrinkle development state was set as “no wrinkle; 0”, “thin wrinkle; 1”, “clear wrinkle; 2”, “deep wrinkle; 3”, and the states were scored to the 0.5.
(§2) Using the similar method, the wrinkle-inhibiting effect of octadecyl β-D-glucoside (GC18) was also examined.

[2] = tested on: barrier-destructed wrinkle mouse model; assay: Relative transepidermal water loss (TEWL) in the barrier-destructed wrinkle mouse model; type: in vivo, hairless mice (HR-1); conditions: for Relative TEWL (%), left (treated) side based on right (untreated) side: 1% in 50% ethanol, 4 weeks after starting, vehicle group 186% (FIG. 3)
Method: as §1
Further, the trans epithelial water loss (TEWL) at the backs of the mice before starting the test and at 4 weeks after starting was also examined. The TEWL values at the left backs on which dodecyl β-D-glucoside, tetradecyl β-D-glucoside, and hexadecyl β-D-glucoside or 50% ethanol aqueous solution (vehicle) were applied after tape stripping procedure as well as the values at the right backs on which nothing was applied were measured by the Vapometer (Technologies Ltd, Kuopio, Finland) two times, respectively. The ratio of the TEWL value for the left side based on the TEWL value of the right side for each individual (the relative TEWL (%)) was obtained and the average value for each group was calculated.
as §2

[3] = tested on: fine wrinkles around the human eyes; assay: Visual judgement of fine wrinkles under the human eye, half face double blind test; type: in vivo; conditions: 0.44% in 30% ethanol
Method: (§3) An aqueous solution of 0.44% dodecyl β-D-glucoside/30% ethanol was successively applied to 16 adult male humans in the 30-40th's (the average age of 42.2) for two months. The dosage was set as 30 μl per application. The solution of 0.44% dodecyl β-D-glucoside/30% ethanol was applied to the lateral angle of and under one eye and 30% ethanol aqueous solution as the vehicle was applied to those of the other eye two times a day.
(§4) To examine the state of the skin around the eyes before the application and after the application, it was acclimated in a steady temperature and humidity room (23.5° C., 45% humidity) after washing the face and then photo taking of the appearance around the eyes (Nikon digital single lens reflex camera D-100) and the water content measurement of the horny layer (Corneometer, Courage+Khazaka electronic GmbH, Germany) were performed before starting the test and after starting the successive application for two months.
Then, the visual appreciation judgement was performed by three judging persons.

[4] = Water content of the horny (corneal) layer around the human eyes (Corneometer); type: in vivo; conditions: 0.44% in 30% ethanol, two months; vehicle group reduced to 95% of the value before start (FIG. 6)
Method: as §3, §4
The rate of the water content value of the corneal layer of the eye, when the value is 100, after successive application for two months based on the water content value of the horny layer of each subject before starting the test (relative water content of the horny layer (%)) was obtained to calculate the average value for each group.

[5] = 1% in 50% ethanol, 100 μl on left back after each tape stripping, 3 times a week, after 4 weeks, vehicle group 1.24 (FIG. 2)
[6] = 30 μl two times a day for two months, 16 adult males, versus vehicle-applied side

## CCCCCCCCCCO[C@@H]1O[C@H](CO)[C@@H](O)[C@H](O)[C@H]1O [Decyl β-D-glucoside]
ADAM
  Inhibition rate (%) of TNF-α release: 56%

## CCCCCCCCCCCCO[C@H]1O[C@H](CO)[C@@H](O)[C@H](O)[C@H]1O [Dodecyl α-D-glucoside]
ADAM
  Inhibition rate (%) of TNF-α release: 91%

## CCCCCCCCCCCCO[C@@H]1O[C@H](CO)[C@@H](O)[C@H](O)[C@H]1O [Dodecyl β-D-glucoside]
ADAM
  Inhibition rate (%) of TNF-α release: 88%
[1]; [5]
  Average wrinkle score by visual judgement (0 no wrinkle to 3 deep wrinkle): 0.58
[2]
  Relative TEWL (%), left (treated) side based on right (untreated) side: 141%
[3]; [6]
  Number of subjects Ameliorated: 10
  Number of subjects Deteriorated: 2
  Number of subjects Unchanged: 4
[3]; two months, human
  Effect on fine wrinkles under the eye (in words): significantly ameliorates the fine wrinkles under the eye
[4]
  Relative water content of the horny layer (in words): reduction of the water content of the corneal layer was controlled

## OC[C@H]1O[C@@H](Oc2ccccc2)[C@H](O)[C@@H](O)[C@@H]1O [Glucoside compound (A), reference compound]
ADAM
  Inhibition rate (%) of TNF-α release: 9.5%

## OC[C@H]1O[C@@H](OCc2ccccc2)[C@H](O)[C@@H](O)[C@@H]1O [Glucoside compound (B), reference compound]
ADAM
  Inhibition rate (%) of TNF-α release: 3.4%

## OC[C@H]1O[C@@H](Oc2cccc3cccnc23)[C@H](O)[C@@H](O)[C@@H]1O [Glucoside compound (C), reference compound]
ADAM
  Inhibition rate (%) of TNF-α release: 4.8%

## OC[C@H]1O[C@@H](Oc2c[nH]c3ccccc23)[C@H](O)[C@@H](O)[C@@H]1O [Glucoside compound (D), reference compound]
ADAM
  Inhibition rate (%) of TNF-α release: −0.5%

## OC[C@H]1O[C@@H](OCCc2ccccc2)[C@H](O)[C@@H](O)[C@@H]1O [Glucoside compound (E), reference compound]
ADAM
  Inhibition rate (%) of TNF-α release: −51.83%

## CCCCCCCCCCCCCCCCO[C@@H]1O[C@H](CO)[C@@H](O)[C@H](O)[C@H]1O [Hexadecyl β-D-glucoside]
ADAM
  Inhibition rate (%) of TNF-α release: 76%
[1]; [5]
  Average wrinkle score by visual judgement (0 no wrinkle to 3 deep wrinkle): 0.89
[2]
  Relative TEWL (%), left (treated) side based on right (untreated) side: 164%

## CCCCCCCCCCCCCCCCCCO[C@@H]1O[C@H](CO)[C@@H](O)[C@H](O)[C@H]1O [Octadecyl β-D-glucoside]
ADAM
  Inhibition rate (%) of TNF-α release: 62%
[1]; similar method, vehicle group 1.55 (FIG. 4)
  Average wrinkle score by visual judgement (0 no wrinkle to 3 deep wrinkle): 0.54
[2]; similar method, vehicle group 208% (FIG. 5)
  Relative TEWL (%): 124%

## CCCCCCCCCCCCCCO[C@@H]1O[C@H](CO)[C@@H](O)[C@H](O)[C@H]1O [Tetradecyl β-D-glucoside]
ADAM
  Inhibition rate (%) of TNF-α release: 109%
[1]; [5]
  Average wrinkle score by visual judgement (0 no wrinkle to 3 deep wrinkle): 0.63
[2]
  Relative TEWL (%), left (treated) side based on right (untreated) side: 130%

## CCCCCCCCCCCO[C@@H]1O[C@H](CO)[C@@H](O)[C@H](O)[C@H]1O [Undecyl β-D-glucoside]
ADAM
  Inhibition rate (%) of TNF-α release: 98%
